{
  "source": "patent US9075060B2",
  "about": "“Methods for diagnosing oral or oral-pharyngeal cancer” (Technion Research & Development Foundation Limited, priority 2009, dated 2015)",
  "key": {"TSPO [1]": {"target": "T1, TSPO (Homo sapiens, UniProt P30536)", "T1 construct": "Assays of [^3H]; host or cells: SCC-25 and SCC-15 human oral cancer cell lines", "T1 sequence (P30536 whole entry)": "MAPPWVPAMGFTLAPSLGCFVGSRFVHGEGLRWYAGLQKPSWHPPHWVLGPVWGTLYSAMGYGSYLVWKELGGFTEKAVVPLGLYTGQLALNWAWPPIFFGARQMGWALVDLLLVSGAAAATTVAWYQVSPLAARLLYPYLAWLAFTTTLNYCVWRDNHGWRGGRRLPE", "assay": "[3H]PK 11195 binding to membranes of SCC-25 cells, Scatchard analysis", "conditions": "mean±SD, n=7", "experimental": "(§1) Assays of [^3H] […] After 80 minute incubation at 4° C., the samples were filtered through Whatman CF/C filters using a vacuum system, washed three times with 4 ml of 5 mM ice cold phosphate buffer and placed in vials containing 4 ml of CytoScint™ (MP Biomedicals, Costa Mesa, Calif.). Radioactivity was counted after 12 hours with a liquid scintillation analyzer. Specific binding was obtained by subtracting non-specific binding from total binding."}, "TSPO [2]": {"target": "T1, TSPO", "assay": "[3H]PK 11195 binding to membranes of SCC-15 cells, Scatchard analysis", "conditions": "mean±SD, n=16", "experimental": "as §1"}},
  "data": [
    {"smiles": "CCC(C)N(C)C(=O)c1cc2ccccc2c(-c2ccccc2Cl)n1", "note": "(centres unmarked) [[^3H]PK 11195, PK 11195]", "values": [
      {"measurement": "Bmax (maximal binding capacity)", "setting": "TSPO [1]", "value": "3133±643", "unit": "fmoles/mg protein"},
      {"measurement": "Bmax (maximal binding capacity)", "setting": "TSPO [2]", "value": "6956±549", "unit": "fmoles/mg protein"}
    ]}
  ]
}
